This note sets out measurements from ChEMBL document CHEMBL4431358, “Flavonoids and biphenylneolignans with anti-inflammatory activity from the stems of Millettia griffithii” (Bioorg Med Chem Lett, 2016).

The test system of data set [1] is RAW264.7. The experiment in a line: Inhibition iNOS protein expression levels in LPS-induced mouse RAW264.7 cells at 1 to 4 uM by Western blot analysis. The class given is functional, cell-based. Background: In western blotting, separated proteins are transferred to a membrane and probed.
In data set [2] the test system is RAW264.7. The experiment in a line: Inhibition COX2 protein expression levels in LPS-induced mouse RAW264.7 cells at 1 to 4 uM by Western blot analysis. The class given is functional, cell-based.
The subject of data set [3] is RAW264.7. Put plainly: Inhibition COX2 mRNA expression levels in LPS-induced mouse RAW264.7 cells at 1 to 4 uM by RT-PCR analysis. Format: functional, cell-based.
For data set [4], the system named is RAW264.7. The experiment in a line: Inhibition iNOS mRNA expression levels in LPS-induced mouse RAW264.7 cells at 1 to 4 uM by RT-PCR analysis. Format: functional, cell-based.
For data set [5], the system named is RAW264.7. The experiment in a line: Antiinflammatory activity in mouse RAW264.7 cells assessed as inhibition of LPS-induced nitric oxide production at 50 uM preincubated for 1 hr followed by LPS stimulation for 24 hrs by Griess method. Format: functional. (The Griess reaction detects nitrite, a stable product of nitric oxide.)
For data set [6], the system named is RAW264.7. The experiment in a line: Antiinflammatory activity in mouse RAW264.7 cells assessed as inhibition of LPS-induced nitric oxide production preincubated for 1 hr followed by LPS stimulation for 24 hrs by Griess method. Format: functional, cell-based.
Data set [7] relates to RAW264.7. The experiment in a line: Cytotoxicity against mouse RAW264.7 cells assessed as reduction in cell viability at 100 uM after 72 hrs by MTT assay. The class given is cell-based. As to conditions: raw264.7, 72 h. (Tetrazolium dyes change colour on reduction, which living cells bring about.)
Data set [8] deals with RAW264.7. Put plainly: Inhibition iNOS mRNA expression levels in LPS-induced mouse RAW264.7 cells at 4 uM by RT-PCR analysis. The class given is functional, cell-based.
Data set [9] concerns RAW264.7. The experiment in a line: Inhibition iNOS protein expression levels in LPS-induced mouse RAW264.7 cells at 4 uM by Western blot analysis. The class given is functional, cell-based.

By inhibition is commonly meant the relative decrease from the control value, in per cent. As usually defined, the IC50 is the concentration that inhibits the measured activity by half.

The source made the active and inactive calls. No cut-off for these calls is given here. Where only a bound is given, the exact number is not on record here.

`COC1=CC(=O)C(CC=C(C)C)(CC=C(C)C)C(=O)/C1=C(N)\C=C\c1ccccc1`: the inhibition result with RAW264.7 [1] and in the data set with RAW264.7 [4] was “Active” throughout. In addition, the inhibition result with RAW264.7 [2] and in the data set on RAW264.7 [3] was “inactive” in each case. The inhibition at 50 µM in the data set on RAW264.7 [5] was > 50%. For the same molecule, the IC50 in the data set with RAW264.7 [6] is 2.1 µM. Besides, in the data set on RAW264.7 [7], the Activity result is on record as “Non-Toxic”.
Consider `COc1cc(OC)c2c(=O)c(-c3cc(OC)c(OCC=C(C)C)cc3OC)coc2c1`, for which the inhibition at 50 µM with RAW264.7 [5] was > 50%. Further, the IC50 with RAW264.7 [6] was found to be 35.7 µM. For the same molecule, the Activity result in the data set on RAW264.7 [7] is recorded as “Non-Toxic”.
With `CC(=N)NCc1cccc(CN)c1`, the inhibition entry with RAW264.7 [8] and in the data set on RAW264.7 [9] was “Active” each time.
`COC1=CC(=O)C(CC=C(C)C)(CC=C(C)C)C2=C1C(=O)C[C@@H](c1ccccc1)O2`: the inhibition at 50 µM in the data set with RAW264.7 [5] was > 50%. Also, the IC50 in the data set on RAW264.7 [6] is 20.4 µM. Besides, in the data set on RAW264.7 [7], the Activity entry is on record as “Non-Toxic”.
